In US7374901B2, “Method of analyzing coenzyme Q-10 and two-electron reduction product thereof and analysis system” (Shiseido Company Ltd., priority 2002, dated 2008):

Legend:
[1] = Storage stability of isopropyl alcohol extracted liquid from human blood plasma (FIG. 5); type: physicochemical; details: isopropyl alcohol extract of human blood plasma, stored at around 4° C., even after at least 11 hours
Protocol: 50 μl of human blood plasma as a specimen is sampled (S-1 in FIG. 4), 950 μl of isopropyl alcohol is added into it (S-2 in FIG. 4), and then they are mixed sufficiently. Subsequently, they are subjected to a centrifugal separator at a rotational speed of 12,000 rpm for 3 minutes and at a temperature of 4° C. Thus, coenzyme Q-10 and a 2-electron reduced form thereof are extracted from the specimen into an isopropyl alcohol phase (S-3 in FIG. 4).
When an extracted liquid into which the coenzyme Q-10, etc., has been extracted is stored at a temperature around 4° C. […] Thus, the alteration of a stored analytical sample can be prevented. Additionally, the longitudinal axis in regard to coenzyme Q-10 in FIG. 5(b) represents the ratio (molar-ratio) of the coenzyme Q-10 occupied in the total quantity of the coenzyme Q-10 and the 2-electron reduced form thereof.

[2] = Storage stability of methanol/hexane extraction liquid, conventional pretreatment (FIG. 3); type: physicochemical; details: various storage temperatures (FIG. 3)
Protocol: In this case, since the measurement is influenced by a water-soluble antioxidation substance in the specimen, such as vitamin C and uric acid, etc., a pretreatment is performed for subjecting the specimen to an extraction treatment with methanol/hexane so as to distribute the water-soluble antioxidation substance into a methanol phase and the coenzyme Q-10, etc., into a hexane phase.
It is therefore necessary to perform analysis immediately after the extraction of the specimen. […] Herein, each temperature indicates a storage temperature of the hexane extraction liquid in FIG. 3.

oxidation of the 2-electron reduced form during storage of the extracted liquid [1]	stability / oxidation in the hexane extraction liquid after pretreatment until injection into HPLC [2]	SMILES
rarely oxidized	oxidized at a substantial rate	COc1c(O)c(C)c(C/C=C(\C)CC/C=C(\C)CC/C=C(\C)CC/C=C(\C)CC/C=C(\C)CC/C=C(\C)CC/C=C(\C)CC/C=C(\C)CC/C=C(\C)CCC=C(C)C)c(O)c1OC [2-electron reduced form of coenzyme Q-10]
	chemically unstable	COC1=C(OC)C(=O)C(C/C=C(\C)CC/C=C(\C)CC/C=C(\C)CC/C=C(\C)CC/C=C(\C)CC/C=C(\C)CC/C=C(\C)CC/C=C(\C)CC/C=C(\C)CCC=C(C)C)=C(C)C1=O [coenzyme Q-10, 2,3-dimethoxy-5-methyl-6-polyprenyl-1,4-benzoquinone]
